The test system of the assay is LXR (THP1/LXR-Luc cells). Put plainly: Cell based LXR responsive luciferase reporter assay (Examples 34A, 34C). Conditions: Homo sapiens, payload compounds, differentiated THP-1/LXR-Luc cells (Table 30); for maximal fold induction: read-out: S/N. The method, then:
The activity of certain LXR agonist payloads described herein were assessed in a cell based LXR responsive luciferase reporter assay. To generate the assay cell line, an LXR regulated luciferase reporter gene (Cignal Lenti LXR Reporter (luc) kit (Qiagen, Cat #CLS-001L)) was transduced into THP1 cells and the cells were selected for two weeks in puromycin. The lentivirus expresses the firefly luciferase gene under the control of a minimal CMV promoter and tandem repeats of the LXR transcriptional response element. The resulting cell line is referred to as THP1/LXR-Luc cells. For the assay, THP1/LXR-Luc cells were seeded onto 96 well plates at 40,000 cells/well in media containing RPMI supplemented with 10% FBS and penicillin/streptomycin and were then differentiated with 200 nM Phorbol Myristate Acetate (PMA) for 3 days. The media was subsequently removed and replaced with 80 uL of fresh media without PMA. Three-fold serial dilutions of free payloads were prepared in 100% DMSO, transferred to fresh media, and 20 uL were added to the cells at a final constant DMSO concentration of 0.2% and free payloads at final concentrations ranging from 100 nM to 0.015 nM. The last well in the plate served as blank control containing only the media and 0.2% DMSO (untreated well) and was plotted as a continuation of the 3-fold serial dilution. Forty-eight hours later, luciferase activity was determined after the addition of One-Glo™ reagent (Promega, Cat #E6130) to each well. Relative light units (RLUs) were measured on a Victor luminometer (PerkinElmer) and EC50 values were determined using a four-parameter logistic equation over a 10-point dose response curve (GraphPad Prism). The signal to noise (S/N) was determined by taking the ratio of the highest RLU on the dose response curve to the RLU in the untreated wells.
Several linker-payloads (LPs) were derived from the payload compounds in Table C and conjugated to an anti-MSR1 antibody (H1H21234N-N297Q) or a non-binding control using the techniques described in the previous example. The resulting anti-MSR1 LXR agonist antibody drug conjugates (ADCs) were tested for activity in the THP1/LXRLuc reporter assay as described above for the payload compounds.

Data on eleven compounds can be found in patent publication US12497460B2, “Anti-MSR1 antibodies and methods of use thereof” (REGENERON PHARMACEUTICALS, INC., priority 2018, dated 2025).

One may read the EC50 as the concentration giving half of the maximal effect. Lower therefore signals an effect from little substance. Regarding `C[C@]1(C(=O)NC(=O)[C@@]2(C)CCC[C@]3(C)c4cc(NC(=O)[C@@H](N)CCC(=O)O)ccc4CC[C@@H]23)CCC[C@]2(C)c3cc(N)ccc3CC[C@@H]12` [P8B, (S)-4-Amino-5-((4bS,8S,8aR)-8-((1S,4aS,10aR)-6-Amino-1,4a-dimethyl-1,2,3,4,4a,9,10,10a-octahydrophenanthrene-1-carbonylcarbamoyl)-4b,8-dimethyl-4b,5,6,7,8,8a,9,10-octahydrophenanthren-3-ylamino)-5-oxopentanoic acid], the EC50 was found to be 3.51 nM and the maximal fold induction came to 10.8.
Take `C[C@]1(C(=O)NC(=O)[C@@]2(C)CCC[C@]3(C)c4cc(NC(=O)[C@@H](N)CCCCN)ccc4CC[C@@H]23)CCC[C@]2(C)c3cc(N)ccc3CC[C@@H]12` [P6B, (1S,4aS,10aR)-6-Amino-N-((1S,4aS,10aR)-6-((S)-2,6-diaminohexanamido)-1,4a-dimethyl-1,2,3,4,4a,9,10,10a-octahydrophenanthrene-1-carbonyl)-1,4a-dimethyl-1,2,3,4,4a,9,10,10a-octahydrophenanthrene-1-carboxamide]: the EC50 stood at 3.34 nM and the maximal fold induction was 10.9.
Regarding `C[C@]1(C(=O)NC(=O)[C@@]2(C)CCC[C@]3(C)c4cc(NC(=O)[C@@H](N)CCC(=O)O)ccc4CC[C@@H]23)CCC[C@]2(C)c3cc(NC(=O)[C@@H](N)CCC(=O)O)ccc3CC[C@@H]12` [P11B, (4S,4'S)-5,5′-(4bS,4b'S,8S,8aR,8'S,8a′R)-8,8′-(Azanediylbis(oxomethylene))bis(4b,8-dimethyl-4b,5,6,7,8,8a,9,10-octahydrophenanthrene-8,3-diyl)bis(azanediyl)bis(4-amino-5-oxopentanoic acid)], the EC50 came out at 0.112 nM and the maximal fold induction was determined as 10.7.
For the compound `C[C@]1(C(=O)NC(=O)[C@@]2(C)CCC[C@]3(C)c4cc(NC(=O)[C@@H](N)CCC(=O)O)ccc4CC[C@@H]23)CCC[C@]2(C)c3cc(NC(=O)CN)ccc3CC[C@@H]12` [P10B, (S)-4-Amino-5-((4bS,8S,8aR)-8-((1S,4aS,10aR)-6-(2-aminoacetamido)-1,4a-dimethyl-1,2,3,4,4a,9,10,10a-octahydrophenanthrene-1-carbonylcarbamoyl)-4b,8-dimethyl-4b,5,6,7,8,8a,9,10-octahydrophenanthren-3-ylamino)-5-oxopentanoic acid], the response was half-maximal at 0.222 nM (EC50) and the maximal fold induction came out at 11.1.
On the same counts, the results for `C[C@H](NC(=O)[C@@H](N)CCC(=O)O)C(=O)Nc1ccc2c(c1)[C@@]1(C)CCC[C@](C)(C(=O)NC(=O)[C@@]3(C)CCC[C@]4(C)c5cc(N)ccc5CC[C@@H]34)[C@@H]1CC2` [P12B, (S)-4-Amino-5-((S)-1-((4bS,8S,8aR)-8-((1S,4aS,10aR)-6-amino-1,4a-dimethyl-1,2,3,4,4a,9,10,10a-octahydrophenanthrene-1-carbonylcarbamoyl)-4b,8-dimethyl-4b,5,6,7,8,8a,9,10-octahydrophenanthren-3-ylamino)-1-oxopropan-2-ylamino)-5-oxopentanoic acid] are 0.296 nM and 11.4.
Regarding `C[C@]1(C(=O)NC(=O)[C@@]2(C)CCC[C@]3(C)c4cc(O)ccc4CC[C@@H]23)CCC[C@]2(C)c3cc(N)ccc3CC[C@@H]12` [P1, (1S,4aS,10aR)-N-[(1S,4aS,10aR)-6-Amino-1,4a-dimethyl-1,2,3,4,4a,9,10,10a-octahydrophenanthrene-1-carbonyl]-6-hydroxy-1,4a-dimethyl-1,2,3,4,4a,9,10,10a-octahydrophenanthrene-1-carboxamide], the EC50 came out at 1.14 nM and the maximal fold induction turned out to be 11.4.
The like results for `C[C@]1(C(=O)NC(=O)[C@@]2(C)CCC[C@]3(C)c4cc(NC(=O)CN)ccc4CC[C@@H]23)CCC[C@]2(C)c3cc(N)ccc3CC[C@@H]12` [P4B, (1S,4aS,10aR)-N-[(1S,4aS,10aR)-6-(2-Aminoacetamido)-1,4a-dimethyl-1,2,3,4,4a,9,10,10a-octahydrophenanthrene-1-carbonyl]-6-amino-1,4a-dimethyl-1,2,3,4,4a,9,10,10a-octahydrophenanthrene-1-carboxamide] were, in that order, 0.125 nM and 10.4.
For `C[C@]1(C(=O)NC(=O)[C@@]2(C)CCC[C@]3(C)c4cc(NC(=O)[C@@H](N)CO)ccc4CC[C@@H]23)CCC[C@]2(C)c3cc(N)ccc3CC[C@@H]12` [P5B, (1S,4aS,10aR)-6-Amino-N-((1S,4aS,10aR)-6-((S)-2-amino-3-hydroxypropanamido)-1,4a-dimethyl-1,2,3,4,4a,9,10,10a-octahydrophenanthrene-1-carbonyl)-1,4a-dimethyl-1,2,3,4,4a,9,10,10a-octahydrophenanthrene-1-carboxamide], a half-maximal response (EC50) required 0.174 nM and the maximal fold induction came out at 13.8.
For `C[C@]1(C(=O)NC(=O)[C@@]2(C)CCC[C@]3(C)c4cc(N)ccc4CC[C@@H]23)CCC[C@]2(C)c3cc(N)ccc3CC[C@@H]12` [P2B, (1S,4aS,10aR)-6-Amino-N-((1S,4aS,10aR)-6-amino-1,4a-dimethyl-1,2,3,4,4a,9,10,10a-octahydrophenanthrene-1-carbonyl)-1,4a-dimethyl-1,2,3,4,4a,9,10,10a-octahydrophenanthrene-1-carboxamide], a half-maximal response (EC50) required 0.292 nM and the maximal fold induction was determined as 11.3.
With `C[C@]1(C(=O)NC(=O)[C@@]2(C)CCC[C@]3(C)c4cc(NC(=O)[C@@H](N)Cc5cnc[nH]5)ccc4CC[C@@H]23)CCC[C@]2(C)c3cc(N)ccc3CC[C@@H]12` [P9B, (1S,4aS,10aR)-6-amino-N-((1S,4aS,10aR)-6-((S)-2-amino-3-(1H-imidazol-4-yl)propanamido)-1,4a-dimethyl-1,2,3,4,4a,9,10,10a-octahydrophenanthrene-1-carbonyl)-1,4a-dimethyl-1,2,3,4,4a,9,10,10a-octahydrophenanthrene-1-carboxamide], the response was half-maximal at 0.234 nM (EC50) and the maximal fold induction was 12.8.
On to `C[C@]1(C(=O)NC(=O)[C@@]2(C)CCC[C@]3(C)c4cc(NC(=O)[C@@H](N)CC(=O)O)ccc4CC[C@@H]23)CCC[C@]2(C)c3cc(N)ccc3CC[C@@H]12` [P7B, (S)-3-Amino-4-((4bS,8S,8aR)-8-((1S,4aS,10aR)-6-amino-1,4a-dimethyl-1,2,3,4,4a,9,10,10a-octahydrophenanthrene-1-carbonylcarbamoyl)-4b,8-dimethyl-4b,5,6,7,8,8a,9,10-octahydrophenanthren-3-ylamino)-4-oxobutanoic acid], for which the response was half-maximal at 0.253 nM (EC50) and the maximal fold induction came to 12.5.
